{"source": "paper PMC9855386", "about": "“Obtaining a Monoclonal Antibody against a Novel Prometryn-Like Hapten and Characterization of Its Selectivity for Triazine Herbicides” (Biosensors, 2022)", "test_system": "mouse antiserum", "assay": "ic-ELISA serum titer and inhibition rate of mice for the fusion experiment (Table S2)", "type": "binding", "details": "prometryn 1000 ng/mL", "experimental": "The Institute of Quality Standards and Testing Technology for Agro-Products’ Experimental Animal Welfare and Ethical Committee (IQSTAP-2021-05) approved the use of animals in experiments. The buffer solution (0.01 M PBS, pH = 7.4) was used to dilute the immunogen (2 mg/mL) to 1 mg/mL. After that, Freund’s adjuvant was added to an identical volume of 0.1 mL in a sterile glass vial. The mixture was placed on a magnetic stirrer and stirred and mixed rapidly in an ice bath to fully emulsify. Six 7-week-old female BALB/c mice were selected for immunization. At the beginning of the third immunization, 3–5 days after each immunization, blood was taken from the orbit, incubated at 37 °C for 0.5 h and 4 °C for 2 h, and centrifuged at 1000 r/min for 10 min. Serum was collected, and the serum titer was determined. The immune strategy of mice was the same as that previously reported. Freund’s […] vaccination, and for the subsequent booster vaccination, Freund’s incomplete adjuvant was utilized. Freund’s adjuvant and immunogen during immunization should be 1:1 and thoroughly mixed until dripping into the water to prevent diffusion. The interval of booster immunization was 2 weeks, and the immune dose was 0.1 mg. Three days before fusion, the mice with the best performance were immunized with a dose of 0.05 mg. The mice were intraperitoneally injected without adjuvant.\nThe ic-ELISA method was used to screen the best-performing fusion mouse sera. They were used to establish the standard curve of antibodies by detecting the supernatant of positive cells. The buffer required for ic-ELISA was the same as previously reported. The specific steps of the operation are as follows: (1) The coated antigen was added to the microplate by diluting it with the required coating solutions (CBS, pH 9.6, 0.05 mol/L). Each well contained 100 µL, which was incubated at 37 °C for three h before being washed three times with washing buffer (PBST, PBS containing 0.1% Tween-20). (2) With sample dilution buffer (PBSTG, PBST containing 0.1% gelatin), the standard prometryn sample and the antiserum/antibody from mice were diluted to the required concentration. The microplate was incubated for 30 min at 37 °C with 50 µL of diluted antiserum or antibody and standard samples of various concentrations. PBST was used three times to wash the dishes. (3) Then, 100 µL of PBSTG-diluent IgG HRP (labeled goat anti-mouse IgG with HRP) was added to each well. After 30 min at 37 °C, the plate was cleaned three times with PBST. (4) Each well was incubated for 15 min in the dark at 25 °C with 100 µL of TMB color developing solution. To stop the reaction, 50 µL of the hydrochloric acid solution was added to each well. The absorbance at OD450 nm was measured with a TECAN Infinite M200 PRO microplate reader from Männedorf, Switzerland.\nIc-ELISA was used to measure the inhibition rate and serum titer of six immunized mice. Three days before cell fusion, Balb/c mice with the highest performance were selected and immunized. SP2/0 myeloma cells and mouse spleen cells were combined for fusion. After fusion, the supernatant of hybridoma cells was determined by indirect competitive enzyme-linked immunosorbent assay, the positive wells were screened, and the hybridoma cells were cloned to obtain hybridoma cell lines that can stably secrete monoclonal antibodies against prometryn. After the positive cell lines were expanded and cultured, mice treated with paraffin 7 days earlier were injected intraperitoneally. Ascites were collected after abdominal swelling and centrifuged at 4 °C at 1000 rpm, and the potency and inhibition rate of ascites were determined and frozen at −20 °C for purification. The 7D4 mAb against prometryn was obtained by purifying the […] with the octanoic acid-saturated ammonium sulfate method. […]"}
{"smiles": "CSc1nc(NC(C)C)nc(NC(C)C)n1", "note": "[Prometryn, 2-methylthio-4,6-di(isopropylamino)-1,3,5-triazobenzene]", "values": [{"measurement": "IR (inhibition rate)", "setting": "dilution of immunogen 1×103, serum dilution 1.28×105", "result": -7.66, "unit": "%"}, {"measurement": "IR (inhibition rate)", "setting": "dilution of immunogen 1×103, serum dilution 1.6×104", "result": 65.86, "unit": "%"}, {"measurement": "IR (inhibition rate)", "setting": "dilution of immunogen 1×103, serum dilution 2×103", "result": 85.70, "unit": "%"}, {"measurement": "IR (inhibition rate)", "setting": "dilution of immunogen 1×103, serum dilution 2.56×105", "result": 75.15, "unit": "%"}, {"measurement": "IR (inhibition rate)", "setting": "dilution of immunogen 1×103, serum dilution 3.2×104", "result": 46.44, "unit": "%"}, {"measurement": "IR (inhibition rate)", "setting": "dilution of immunogen 1×103, serum dilution 4×103", "result": 88.04, "unit": "%"}, {"measurement": "IR (inhibition rate)", "setting": "dilution of immunogen 1×103, serum dilution 6.4×104", "result": 35.52, "unit": "%"}, {"measurement": "IR (inhibition rate)", "setting": "dilution of immunogen 1×103, serum dilution 8×103", "result": 81.46, "unit": "%"}, {"measurement": "IR (inhibition rate)", "setting": "dilution of immunogen 1.6×104, serum dilution 1.28×105", "result": -52.80, "unit": "%"}, {"measurement": "IR (inhibition rate)", "setting": "dilution of immunogen 1.6×104, serum dilution 1.6×104", "result": 58.64, "unit": "%"}, {"measurement": "IR (inhibition rate)", "setting": "dilution of immunogen 1.6×104, serum dilution 2×103", "result": 85.05, "unit": "%"}, {"measurement": "IR (inhibition rate)", "setting": "dilution of immunogen 1.6×104, serum dilution 2.56×105", "result": 71.56, "unit": "%"}, {"measurement": "IR (inhibition rate)", "setting": "dilution of immunogen 1.6×104, serum dilution 3.2×104", "result": 28.55, "unit": "%"}, {"measurement": "IR (inhibition rate)", "setting": "dilution of immunogen 1.6×104, serum dilution 4×103", "result": 82.62, "unit": "%"}, {"measurement": "IR (inhibition rate)", "setting": "dilution of immunogen 1.6×104, serum dilution 6.4×104", "result": 11.18, "unit": "%"}, {"measurement": "IR (inhibition rate)", "setting": "dilution of immunogen 1.6×104, serum dilution 8×103", "result": 81.51, "unit": "%"}, {"measurement": "IR (inhibition rate)", "setting": "dilution of immunogen 2×103, serum dilution 1.28×105", "result": 14.21, "unit": "%"}, {"measurement": "IR (inhibition rate)", "setting": "dilution of immunogen 2×103, serum dilution 1.6×104", "result": 61.99, "unit": "%"}, {"measurement": "IR (inhibition rate)", "setting": "dilution of immunogen 2×103, serum dilution 2×103", "result": 85.14, "unit": "%"}, {"measurement": "IR (inhibition rate)", "setting": "dilution of immunogen 2×103, serum dilution 2.56×105", "result": 74.90, "unit": "%"}, {"measurement": "IR (inhibition rate)", "setting": "dilution of immunogen 2×103, serum dilution 3.2×104", "result": 51.64, "unit": "%"}, {"measurement": "IR (inhibition rate)", "setting": "dilution of immunogen 2×103, serum dilution 4×103", "result": 86.95, "unit": "%"}, {"measurement": "IR (inhibition rate)", "setting": "dilution of immunogen 2×103, serum dilution 6.4×104", "result": 10.11, "unit": "%"}, {"measurement": "IR (inhibition rate)", "setting": "dilution of immunogen 2×103, serum dilution 8×103", "result": 79.58, "unit": "%"}, {"measurement": "IR (inhibition rate)", "setting": "dilution of immunogen 3.2×104, serum dilution 1.28×105", "result": 17.80, "unit": "%"}, {"measurement": "IR (inhibition rate)", "setting": "dilution of immunogen 3.2×104, serum dilution 1.6×104", "result": 74.44, "unit": "%"}, {"measurement": "IR (inhibition rate)", "setting": "dilution of immunogen 3.2×104, serum dilution 2×103", "result": 84.75, "unit": "%"}, {"measurement": "IR (inhibition rate)", "setting": "dilution of immunogen 3.2×104, serum dilution 2.56×105", "result": 72.21, "unit": "%"}, {"measurement": "IR (inhibition rate)", "setting": "dilution of immunogen 3.2×104, serum dilution 3.2×104", "result": 51.77, "unit": "%"}, {"measurement": "IR (inhibition rate)", "setting": "dilution of immunogen 3.2×104, serum dilution 4×103", "result": 68.48, "unit": "%"}, {"measurement": "IR (inhibition rate)", "setting": "dilution of immunogen 3.2×104, serum dilution 6.4×104", "result": 28.68, "unit": "%"}, {"measurement": "IR (inhibition rate)", "setting": "dilution of immunogen 3.2×104, serum dilution 8×103", "result": 80.75, "unit": "%"}, {"measurement": "IR (inhibition rate)", "setting": "dilution of immunogen 4×103, serum dilution 1.28×105", "result": 7.62, "unit": "%"}, {"measurement": "IR (inhibition rate)", "setting": "dilution of immunogen 4×103, serum dilution 1.6×104", "result": 63.91, "unit": "%"}, {"measurement": "IR (inhibition rate)", "setting": "dilution of immunogen 4×103, serum dilution 2×103", "result": 86.78, "unit": "%"}, {"measurement": "IR (inhibition rate)", "setting": "dilution of immunogen 4×103, serum dilution 2.56×105", "result": 78.43, "unit": "%"}, {"measurement": "IR (inhibition rate)", "setting": "dilution of immunogen 4×103, serum dilution 3.2×104", "result": 47.70, "unit": "%"}, {"measurement": "IR (inhibition rate)", "setting": "dilution of immunogen 4×103, serum dilution 4×103", "result": 87.39, "unit": "%"}, {"measurement": "IR (inhibition rate)", "setting": "dilution of immunogen 4×103, serum dilution 6.4×104", "result": 24.90, "unit": "%"}, {"measurement": "IR (inhibition rate)", "setting": "dilution of immunogen 4×103, serum dilution 8×103", "result": 81.74, "unit": "%"}, {"measurement": "IR (inhibition rate)", "setting": "dilution of immunogen 8×103, serum dilution 1.28×105", "result": 7.17, "unit": "%"}, {"measurement": "IR (inhibition rate)", "setting": "dilution of immunogen 8×103, serum dilution 1.6×104", "result": 58.20, "unit": "%"}, {"measurement": "IR (inhibition rate)", "setting": "dilution of immunogen 8×103, serum dilution 2×103", "result": 87.26, "unit": "%"}, {"measurement": "IR (inhibition rate)", "setting": "dilution of immunogen 8×103, serum dilution 2.56×105", "result": 59.68, "unit": "%"}, {"measurement": "IR (inhibition rate)", "setting": "dilution of immunogen 8×103, serum dilution 3.2×104", "result": 15.68, "unit": "%"}, {"measurement": "IR (inhibition rate)", "setting": "dilution of immunogen 8×103, serum dilution 4×103", "result": 84.15, "unit": "%"}, {"measurement": "IR (inhibition rate)", "setting": "dilution of immunogen 8×103, serum dilution 6.4×104", "result": 7.82, "unit": "%"}, {"measurement": "IR (inhibition rate)", "setting": "dilution of immunogen 8×103, serum dilution 8×103", "result": 76.22, "unit": "%"}]}
